Columns and labels:
[1] = tested on: intracellular GSH in rat primary astrocytes; test: Intracellular GSH / GSSG in rat primary astrocytes; type: cell-based; conditions: 10 mM NAC 1 h; TNF-α or IL-1β 50 ng/ml; diamide 0.5 mM
Experimental: Measurement of reduced glutathione (GSH) concentration in rat primary astrocytes Concentration of intracellular GSH was measured using a colorimetric assay kit for GSH from RandD, USA. Briefly, 2×10^6 cells were homogenized in 500 μl of ice-cold 5% metaphosphoric acid and centrifuged at 3000 g for 10 min. Supernatants were used to assay GSH using 4-chloro-1-methyl-7-trifluoromethyl-quinolinium methylsulfate and 30% NaOH at 400 nm.
Measurement of GSH (Reduced Glutathione) and GSSG Oxidized Glutathione Concentration of intracellular reduced GSH was measured using a calorimetric assay kit for GSH from R & D Systems. Briefly, 2×10^6 cells were homogenized in 500 μl of ice-cold 5% metaphosphoric acid and centrifuged at 3000×g for 10 min. Supernatants were used to assay GSH using 4-chloro-1-methyl-7-trifluoromethylquinolinium methylsulfate and 30% NaOH at 400 nm. Concentration of GSSG was determined according to the method of Griffith (1980) after derivatization with 2-vinylpyridine for 30 min at room temperature.

[2] = tested on: ceramide production in rat primary astrocytes; test: Degradation of sphingomyelin to ceramide (DAG kinase assay, HPTLC) in rat primary astrocytes; type: cell-based
Experimental: Lipid extraction Approximately 1.0×10^6 cells were exposed to different cytokines in the presence or absence of antioxidants for different periods and lipids were extracted according to the methods described by Welsh (1996).
Quantification of sphingomyelin by HPTLC and densitometry Sphingomyelin was separated from total lipid extracts by HPTLC (LPK-plates from Whatman Labsales, USA) as described (Ganser et al., 1988) for phospholipids with the modification, that the plate was overrun for 30 min during its development and was dried overnight in vacuum desicator. Sphingomyelin was quantitated by densitometric scanning using Imaging Densitometer (Model GS-670; Bio-Rad, USA) and software provided with the instrument by the manufacturer.
Quantification of ceramide levels by diacylglycerol kinase assay Ceramide content was quantified essentially according to Priess et al. using diacylglycerol (DAG) kinase and [γ-^32P]ATP (Priess et al., 1986). Briefly, dried lipids were solubilized in 20 μl of an octyl β-D-glucoside/cardiolipin solution (7.5% octyl β-D-glucoside, 5 mM cardiolipin in 1 mM DTPA) by sonication in a sonicator bath. […] The labeled ceramide 1-phosphate was resolved with a solvent system consisting of methyl acetate: n-propanol:chloroform:methanol:0.25% KCl in water:acetic-acid (100:100:100:40:36:2). A standard sample of ceramide was phosphorylated under identical conditions and developed in parallel. […] Quantification of ceramide 1-phosphate was carried out by autoradiography and densitometric scanning using Imaging Densitometer (Model GS-670; Bio-Rad, USA). Values are expressed either as arbitrary units (absorbance) or as percent change.
Lipid Extraction Approximately 1.0×10^6 cells were exposed to different cytokines in the presence or absence of antioxidants for different periods, and lipids were extracted according to the methods described by Welsh (1996).
Quantification of Sphingomyelin by High Performance TLC and Densitometry Sphingomyelin was separated from total lipid extracts by high performance TLC (LHPK plates from Whatman) as described by Ganser et al. (1988) for phospholipids with the following modification: the plate was overrun for 30 min during its development and was dried overnight in vacuum desiccator. Sphingomyelin was quantitated by densitometric scanning using Imaging Densitometer (model GS-670; Bio-Rad), and software was provided with the instrument by the manufacturer.
Quantification of Ceramide Levels by Diacylglycerol Kinase Assay Ceramide content was quantified essentially according to Priess et al. (1986) using diacylglycerol (DAG) kinase and [γ-^32P]ATP. Briefly, dried lipids were solubilized in 20 μl of an octyl β-D-glucoside/cardiolipin solution (7.5% octyl β-D-glucoside, 5 mM cardiolipin in 1 mM DTPA) by sonication in a sonicator bath. […] The labeled ceramide-1-phosphate was resolved with a solvent system consisting of methyl acetate:n-propyl alcohol:chloroform:methanol, 0.25% KCl in water:acetic acid (100:100:100:40:36:2). A standard sample of ceramide was phosphorylated under identical conditions and developed in parallel. […] Quantification of ceramide-1-phosphate was carried out by autoradiography and densitometric scanning using Imaging Densitometer (model GS-670; Bio-Rad). Values are expressed either as arbitrary units (absorbance) or as percent change.

[3] = tested on: rat primary oligodendrocytes; test: Apoptosis (DNA fragmentation, laddering) in rat primary oligodendrocytes; type: cell-based; conditions: 10 mM NAC 1 h; diamide 0.5 mM, TNF-α 50 ng/ml or C2-ceramide; 12 h
Experimental: Detection of DNA fragmentation Cells (1×10^6) were pelleted in an eppendorf tube by centrifugation at 1,000 rpm for 5 min, washed with PBS (pH 7.4), resuspended gently in 50 μl of a lysis buffer [200 mM NaCl, 10 mM Tris-HCl (pH 8.0), 40 mM EDTA (pH 8.0), 0.5% SDS, 400 ng RNase A/μl] and incubated at 37° C. for 1 h. The lysate received 200 μl of the digestion buffer [200 mM NaCl, 10 mM Tris-HCl (pH 8.0), 0.5% SDS, 125 ng proteinase K/μl]. The contents were mixed by inversion several times and then incubated at 50° C. for 2 h. An equal volume of a mixture phenol (pH 8.0), chloroform and isoamyl alcohol (25:24:1, v/v) was added, gently mixed for 10 min, and stored at room temperature for 2 min. […] The gel was stained with ethidium bromide and DNA-intercalated ethidium fluorescence was photographed on Polaroid film 665 (P/N) using an orange filter. […]
Detection of DNA Fragmentation Cells (1×10^6) were pelleted in an Eppendorf tube by centrifugation at 1000 rpm for 5 min, washed with phosphate-buffered saline, pH 7.4, resuspended gently in 50 μl of a lysis buffer (200 mM NaCl, 10 mM Tris-HCl, pH 8.0, 40 mM EDTA, pH 8.0, 0.5% SDS, 400 ng of RNase A/μl), and incubated at 37° C. for 1 h. […] The gel was stained with ethidium bromide, and DNA-intercalated ethidium fluorescence was photographed on Polaroid film 665 (P/N) using an orange filter. […]

[4] = X-ALD patients; cited from earlier work

| Structure (SMILES) | intracellular level of GSH / GSSG [1] | increase in ceramide production [2] | ceramide formation and DNA fragmentation / apoptosis [3] | reduction of VLCFA [4] |
| --- | --- | --- | --- | --- |
| CN(C)C(=O)/N=N/C(=O)N(C)C [diamide] | increased the intracellular level of GSSG | about 7 fold | induced internucleosomal DNA fragmentation |  |
| CCCCCCCC/C=C\CCCCCCCC(=O)OCC(COC(=O)CCCCCCC/C=C\CCCCCCCC)OC(=O)CCCCCCC/C=C\CCCCCCCC [trioleate] |  |  |  | 50% |
